Patent EP0006718A1, “1.2.4-Triazolidine-3.5-dione derivatives, process for their preparation and pharmaceutical compositions containing them” (BEECHAM GROUP PLC, priority 1978, dated 1980)

Tests used:
[1] = test system: 5-hydroxy-tryptamine or histamine induced bronchoconstriction; assay: Broncho-dilation activity: inhibition of induced bronchoconstriction (Konzett-Rossler preparation); assay type: in vivo; conditions: Cavia porcellus, iv; anaesthetised artificially respired guinea-pig; read-out: ED 50 value for inhibition of bronchoconstriction
Source text: The compound of Example 4 was examined for its ability to inhibit 5-hydroxy-tryptamine or histamine induced bron- choconstrictioh in the anaesthetised artifically respired guinea-pig (Konzett-Rossler preparation).

[2] = test system: indomethacin induced gastric damage; assay: Anti-ulcer activity: inhibition of indomethacin induced gastric damage (method of Eleghe); assay type: in vivo; conditions: Rattus norvegicus, 30 minutes before 15mg/kg indomethacin s.c., rats sacrificed 4 hours later
Procedure: Anti-ulcer activity of the compound of Example 4 was assessed by the inhibition of indomethacin induced gastric damage in the rat according to the method of Eleghe (1974) Israeli J. Med. Sci. 10. 1451. Rats were starved overnight given 15mg/kg indomethacin subcutaneously and sacrificed 4 hours later. Stomachs were reflated with n. saline, cut along the greater curvature pinned out and scored for gastric damage.
Groups of 7 rats were used for each treatment and the test compound or vehicle was administered 30 minutes prior to giving the indomethacin. Varying doses of test compound were administered orally and control groups receiving vehicle only were set up simultaneously. Mean values for each treatment were obtained and the Mann Witney test applied for significance of difference between the values obtained with the treatments.

Structure (SMILES): Cn1c(=O)n(CCCCCCC(=O)O)n(CCC(C)(O)COc2ccccc2)c1=O (stereo not shown) [Example 4, 1-(6'-carboxyhexyl)-2-(3"-hydroxy-3"-methyl-4"-phenoxybutyl)-4-methyl'-1,2,4-triazolidine-3,5-dione]
- ED50 [1]: 0.039 mg/kg
- inhibition at 25 mg/kg ([2]; 25 mg/kg p.o.): 56%
- inhibition at 50 mg/kg ([2]; 50 mg/kg p.o.): 50%
- inhibition at 100 mg/kg ([2]; 100 mg/kg p.o.): 92%
